For three compounds, EC50 results are on record in article PMC6748385 (Toxicology and applied pharmacology, 2019).

Holding throughout (experiment): ERE-luciferase transactivation, HELN-zfER cells
Common to all, as to assay type: cell-based

Experiment [1] has as its target zfERβ2 (Esr2a) (Danio rerio, UniProt Q7ZU32).
The target in experiment [2] is T1, zfERα (Esr1) (Danio rerio, UniProt P57717).
T1 sequence (P57717 1-569): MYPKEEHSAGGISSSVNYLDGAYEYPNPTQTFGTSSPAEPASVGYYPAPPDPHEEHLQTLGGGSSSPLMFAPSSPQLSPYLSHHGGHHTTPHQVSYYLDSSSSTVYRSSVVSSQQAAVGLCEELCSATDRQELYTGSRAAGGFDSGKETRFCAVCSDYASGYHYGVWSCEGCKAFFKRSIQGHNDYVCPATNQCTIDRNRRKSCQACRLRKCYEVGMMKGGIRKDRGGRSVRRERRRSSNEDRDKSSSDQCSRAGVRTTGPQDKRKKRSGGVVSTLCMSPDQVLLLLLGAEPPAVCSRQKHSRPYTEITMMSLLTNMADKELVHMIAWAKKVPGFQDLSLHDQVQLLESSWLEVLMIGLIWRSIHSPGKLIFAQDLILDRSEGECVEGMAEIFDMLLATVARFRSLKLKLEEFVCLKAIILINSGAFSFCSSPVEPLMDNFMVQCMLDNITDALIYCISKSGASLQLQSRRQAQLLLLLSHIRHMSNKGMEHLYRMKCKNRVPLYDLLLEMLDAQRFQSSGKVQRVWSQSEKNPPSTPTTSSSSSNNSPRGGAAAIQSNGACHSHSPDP

Experiment [3] addresses T2, zfERβ1 (Esr2b) (Danio rerio, UniProt Q5PR29).
T2 sequence (Q5PR29 1-592): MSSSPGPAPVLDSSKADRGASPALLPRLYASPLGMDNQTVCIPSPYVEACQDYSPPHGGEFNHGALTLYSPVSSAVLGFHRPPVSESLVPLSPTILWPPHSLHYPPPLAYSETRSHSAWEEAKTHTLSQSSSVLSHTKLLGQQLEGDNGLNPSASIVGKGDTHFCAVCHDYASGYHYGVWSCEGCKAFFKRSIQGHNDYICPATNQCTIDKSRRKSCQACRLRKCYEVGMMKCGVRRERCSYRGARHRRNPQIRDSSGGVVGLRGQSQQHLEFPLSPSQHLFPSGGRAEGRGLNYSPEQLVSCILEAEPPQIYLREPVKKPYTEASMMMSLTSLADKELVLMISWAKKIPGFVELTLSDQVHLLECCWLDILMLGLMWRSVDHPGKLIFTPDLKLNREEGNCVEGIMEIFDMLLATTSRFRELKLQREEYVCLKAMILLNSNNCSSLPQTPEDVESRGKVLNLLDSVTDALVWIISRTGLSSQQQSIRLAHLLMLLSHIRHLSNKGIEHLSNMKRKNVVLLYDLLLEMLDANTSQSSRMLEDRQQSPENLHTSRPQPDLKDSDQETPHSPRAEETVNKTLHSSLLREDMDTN

Where two headings read alike, the source gives them in different places.

Chain of zfERβ2 (Esr2a) (Q7ZU32 1-553): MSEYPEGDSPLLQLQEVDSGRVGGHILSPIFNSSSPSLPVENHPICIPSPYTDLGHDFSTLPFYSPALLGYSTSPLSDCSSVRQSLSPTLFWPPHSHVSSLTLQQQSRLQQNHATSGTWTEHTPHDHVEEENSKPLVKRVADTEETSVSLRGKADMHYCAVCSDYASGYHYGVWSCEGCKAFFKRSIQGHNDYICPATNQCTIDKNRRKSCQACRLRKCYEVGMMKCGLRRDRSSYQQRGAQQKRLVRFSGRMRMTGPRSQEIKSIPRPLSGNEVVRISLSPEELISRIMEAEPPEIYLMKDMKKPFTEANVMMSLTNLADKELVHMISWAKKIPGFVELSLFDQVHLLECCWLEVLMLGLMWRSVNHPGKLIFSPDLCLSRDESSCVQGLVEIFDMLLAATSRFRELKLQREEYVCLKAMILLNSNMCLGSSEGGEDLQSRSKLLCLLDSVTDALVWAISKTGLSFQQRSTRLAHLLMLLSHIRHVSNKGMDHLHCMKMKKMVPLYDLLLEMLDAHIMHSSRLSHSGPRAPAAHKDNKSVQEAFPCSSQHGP

For the compound `C[C@]12CC[C@@H]3c4ccc(O)cc4CC[C@H]3[C@@H]1C[C@H]1OC(=O)C[C@]12O` [16α-LE2, 3,17-Dihydroxy-19-nor-17α-pregna-1,3,5(10)-triene-21,16α-lactone], the EC50 in experiment [1] amounted to 69.5 ± 17.5 nM; in experiment [2], 0.65 ± 0.1 nM; in experiment [3] it was 271 ± 45 nM.

For `Oc1ccc(C(c2ccc(O)cc2)(C(F)(F)F)C(F)(F)F)cc1` [BPAF], the EC50 in experiment [1] (read-out: zfERβ2, agonist mode, 16 h, 28°C) is 897 ± 268 nM; in experiment [2] (read-out: zfERα, agonist mode, 16 h, 28°C), 84 ± 27 nM; in experiment [3] (read-out: zfERβ1, agonist mode, 16 h, 28°C) it was 758 ± 131 nM.

Consider `CC(C)(c1ccc(O)cc1)c1ccc(O)cc1` [BPA], for which the EC50 in experiment [1] amounted to 2800 ± 562 nM; in experiment [2] it was 469 ± 42 nM; in experiment [3], 3330 ± 381 nM.
